According to ChEMBL document CHEMBL1795255, “Discovery and optimization of potent and selective benzonaphthyridinone analogs as small molecule mTOR inhibitors with improved mouse microsome stability” (Bioorg Med Chem Lett, 2011):
pEC50, pIC50: −log10 of the molar value. One block for each compound: values may come before it.

Key:
[1] = Inhibition of PI3K-dependent Akt phosphorylation at T308 residue in human PC3 cells; format: cell-based; details: PC-3
[2] = Inhibition of mTORC1
[3] = target: Serine/threonine-protein kinase mTOR (Mus musculus, UniProt Q9JLN9); assay: Inhibition of mTOR-dependent S6K phosphorylation at T389 residue in MEF cells; format: cell-based
[4] = AUC (0 to infinity) in po dosed mouse; format: ADME, organism-based; design: route oral, time infinity; details: plasma
[5] = (§1) Tmax in po dosed mouse; format: ADME, organism-based; details: in vivo
[6] = Metabolic stability in mouse microsomes in presence of NADPH; format: ADME, Microsome; details: read-out: Stability
[7] = Clearance in iv dosed mouse; format: ADME, organism-based; details: in vivo
CYP3A4 = CYP3A4 (Homo sapiens, UniProt P08684); assay: Inhibition of CYP3A4 at 10 uM; format: ADME
Chain of CYP3A4 (P08684 whole entry): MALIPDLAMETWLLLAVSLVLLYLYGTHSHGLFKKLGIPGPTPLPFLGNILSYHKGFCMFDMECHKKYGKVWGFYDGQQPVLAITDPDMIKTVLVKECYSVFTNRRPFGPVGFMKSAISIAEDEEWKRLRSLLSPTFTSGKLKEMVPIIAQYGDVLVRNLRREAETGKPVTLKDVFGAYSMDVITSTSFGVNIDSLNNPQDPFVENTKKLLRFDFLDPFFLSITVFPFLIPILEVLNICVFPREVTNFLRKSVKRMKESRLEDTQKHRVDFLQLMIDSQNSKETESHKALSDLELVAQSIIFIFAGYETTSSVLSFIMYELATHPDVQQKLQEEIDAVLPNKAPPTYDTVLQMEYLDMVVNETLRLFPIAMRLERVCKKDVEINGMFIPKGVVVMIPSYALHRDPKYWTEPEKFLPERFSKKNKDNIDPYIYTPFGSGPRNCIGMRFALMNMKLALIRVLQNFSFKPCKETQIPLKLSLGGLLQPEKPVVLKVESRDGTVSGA

[8] = AUC (0 to infinity) in iv dosed mouse; format: ADME, organism-based; design: time infinity, route intravenous; details: plasma
[9] = (§2) Cmax in iv dosed mouse; format: ADME, organism-based; design: route intravenous; details: in vivo
[10] = (§3) Volume of distribution at steady state in iv dosed mouse; format: ADME, organism-based; details: in vivo, read-out: Vdss
[11] = (§4) Cmax in po dosed mouse; format: ADME, organism-based; design: route oral; details: in vivo
[12] = Oral bioavailability in mouse; format: ADME, organism-based; details: in vivo
[13] = Half life in iv dosed mouse; format: ADME, organism-based; details: in vivo
Mus musculus [14] = assay: as §1; format: ADME, organism-based; details: in vivo
Mus musculus [15] = assay: as §2; format: ADME, organism-based; design: route intravenous; details: in vivo
Mus musculus [16] = assay: as §3; format: ADME, organism-based; details: in vivo
Mus musculus [17] = assay: as §4; format: ADME, organism-based; design: route oral; details: in vivo
[18] = target: Phosphatidylinositol 3-kinase catalytic subunit type 3 (Homo sapiens, UniProt Q8NEB9); assay: Inhibition of human VPS34
[19] = target: T1, Serine/threonine-protein kinase mTOR (Homo sapiens, UniProt P42345); assay: Inhibition of mTOR-dependent S6K phosphorylation at T389 residue in lung at 20 mg/kg after 6 hrs by in vivo pharmacodynamic study; format: organism-based; design: dose 20 mg/kg
[20] = target: Phosphatidylinositol 4-kinase alpha (Homo sapiens, UniProt P42356); assay: Inhibition of PI4K alpha
Chain of Phosphatidylinositol 4-kinase alpha (P42356 whole entry): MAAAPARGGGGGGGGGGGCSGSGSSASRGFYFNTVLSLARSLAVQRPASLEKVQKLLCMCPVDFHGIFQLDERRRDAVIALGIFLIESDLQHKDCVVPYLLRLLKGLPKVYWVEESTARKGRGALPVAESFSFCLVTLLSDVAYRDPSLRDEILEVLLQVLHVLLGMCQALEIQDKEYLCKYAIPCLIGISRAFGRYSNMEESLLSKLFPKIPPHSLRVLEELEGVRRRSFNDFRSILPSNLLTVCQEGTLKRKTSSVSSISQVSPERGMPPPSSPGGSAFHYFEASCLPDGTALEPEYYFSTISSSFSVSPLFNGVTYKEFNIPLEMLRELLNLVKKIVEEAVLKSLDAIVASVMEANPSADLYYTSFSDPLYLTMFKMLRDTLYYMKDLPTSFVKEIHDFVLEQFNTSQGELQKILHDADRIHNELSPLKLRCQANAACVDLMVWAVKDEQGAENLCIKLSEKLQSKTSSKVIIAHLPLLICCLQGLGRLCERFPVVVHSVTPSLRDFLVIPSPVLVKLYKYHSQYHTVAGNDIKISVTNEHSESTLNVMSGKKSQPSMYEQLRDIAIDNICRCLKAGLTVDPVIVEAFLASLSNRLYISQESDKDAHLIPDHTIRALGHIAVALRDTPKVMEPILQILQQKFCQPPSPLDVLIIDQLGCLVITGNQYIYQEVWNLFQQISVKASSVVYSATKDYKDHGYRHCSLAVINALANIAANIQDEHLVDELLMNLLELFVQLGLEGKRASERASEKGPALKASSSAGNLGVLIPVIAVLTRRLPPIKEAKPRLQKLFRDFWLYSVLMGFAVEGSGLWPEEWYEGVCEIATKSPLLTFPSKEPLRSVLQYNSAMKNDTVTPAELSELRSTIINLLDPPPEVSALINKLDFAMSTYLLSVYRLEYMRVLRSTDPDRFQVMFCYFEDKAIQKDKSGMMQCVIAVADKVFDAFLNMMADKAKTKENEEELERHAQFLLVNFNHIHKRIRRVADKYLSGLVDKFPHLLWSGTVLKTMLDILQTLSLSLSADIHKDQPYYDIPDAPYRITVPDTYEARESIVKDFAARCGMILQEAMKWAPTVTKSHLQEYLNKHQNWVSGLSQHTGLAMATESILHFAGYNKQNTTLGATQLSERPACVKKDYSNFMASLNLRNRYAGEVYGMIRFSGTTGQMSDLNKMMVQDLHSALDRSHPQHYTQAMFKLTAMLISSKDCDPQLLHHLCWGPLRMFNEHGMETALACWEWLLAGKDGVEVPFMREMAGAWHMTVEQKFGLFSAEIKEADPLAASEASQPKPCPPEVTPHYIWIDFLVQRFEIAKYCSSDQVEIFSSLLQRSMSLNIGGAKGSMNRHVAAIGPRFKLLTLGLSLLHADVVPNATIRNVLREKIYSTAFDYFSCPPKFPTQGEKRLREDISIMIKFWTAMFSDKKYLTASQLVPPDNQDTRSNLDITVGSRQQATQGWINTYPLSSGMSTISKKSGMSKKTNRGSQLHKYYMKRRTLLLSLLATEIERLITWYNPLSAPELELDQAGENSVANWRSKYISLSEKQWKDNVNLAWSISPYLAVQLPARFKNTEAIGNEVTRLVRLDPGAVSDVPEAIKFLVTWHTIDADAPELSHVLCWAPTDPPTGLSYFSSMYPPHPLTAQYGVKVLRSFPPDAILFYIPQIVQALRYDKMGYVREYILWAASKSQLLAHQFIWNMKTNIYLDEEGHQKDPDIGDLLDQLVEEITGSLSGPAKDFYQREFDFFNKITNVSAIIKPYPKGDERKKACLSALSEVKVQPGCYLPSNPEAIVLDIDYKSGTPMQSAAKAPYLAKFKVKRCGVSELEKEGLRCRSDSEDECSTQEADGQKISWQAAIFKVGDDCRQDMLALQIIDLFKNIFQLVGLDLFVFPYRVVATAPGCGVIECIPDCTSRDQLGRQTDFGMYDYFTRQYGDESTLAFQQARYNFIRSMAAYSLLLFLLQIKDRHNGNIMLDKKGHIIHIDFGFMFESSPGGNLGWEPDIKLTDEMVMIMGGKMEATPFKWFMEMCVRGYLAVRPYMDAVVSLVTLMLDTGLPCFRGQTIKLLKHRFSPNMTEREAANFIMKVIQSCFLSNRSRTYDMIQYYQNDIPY

[21] = target: T1, Serine/threonine-protein kinase mTOR; assay: Inhibition of mTOR-dependent AKT phosphorylation at S473 residue in lung at 20 mg/kg after 6 hrs by in vivo pharmacodynamic study; format: organism-based; design: dose 20 mg/kg
[22] = target: T1, Serine/threonine-protein kinase mTOR; assay: Inhibition of mTOR-dependent AKT phosphorylation at S473 residue in liver at 20 mg/kg after 6 hrs by in vivo pharmacodynamic study; format: organism-based; design: dose 20 mg/kg
[23] = target: T1, Serine/threonine-protein kinase mTOR; assay: Inhibition of mTOR-dependent S6K phosphorylation at T389 residue in liver at 20 mg/kg after 6 hrs by in vivo pharmacodynamic study; format: organism-based; design: dose 20 mg/kg
[24] = target: Phosphatidylinositol 4-phosphate 3-kinase C2 domain-containing subunit alpha (Homo sapiens, UniProt O00443); assay: Inhibition of PI3K C2alpha
[25] = target: T1, Serine/threonine-protein kinase mTOR; assay: Inhibition of mTOR
[26] = target: Phosphatidylinositol 4-kinase beta (Homo sapiens, UniProt Q9UBF8); assay: Inhibition of PI4K beta
Chain of Phosphatidylinositol 4-kinase beta (Q9UBF8 whole entry): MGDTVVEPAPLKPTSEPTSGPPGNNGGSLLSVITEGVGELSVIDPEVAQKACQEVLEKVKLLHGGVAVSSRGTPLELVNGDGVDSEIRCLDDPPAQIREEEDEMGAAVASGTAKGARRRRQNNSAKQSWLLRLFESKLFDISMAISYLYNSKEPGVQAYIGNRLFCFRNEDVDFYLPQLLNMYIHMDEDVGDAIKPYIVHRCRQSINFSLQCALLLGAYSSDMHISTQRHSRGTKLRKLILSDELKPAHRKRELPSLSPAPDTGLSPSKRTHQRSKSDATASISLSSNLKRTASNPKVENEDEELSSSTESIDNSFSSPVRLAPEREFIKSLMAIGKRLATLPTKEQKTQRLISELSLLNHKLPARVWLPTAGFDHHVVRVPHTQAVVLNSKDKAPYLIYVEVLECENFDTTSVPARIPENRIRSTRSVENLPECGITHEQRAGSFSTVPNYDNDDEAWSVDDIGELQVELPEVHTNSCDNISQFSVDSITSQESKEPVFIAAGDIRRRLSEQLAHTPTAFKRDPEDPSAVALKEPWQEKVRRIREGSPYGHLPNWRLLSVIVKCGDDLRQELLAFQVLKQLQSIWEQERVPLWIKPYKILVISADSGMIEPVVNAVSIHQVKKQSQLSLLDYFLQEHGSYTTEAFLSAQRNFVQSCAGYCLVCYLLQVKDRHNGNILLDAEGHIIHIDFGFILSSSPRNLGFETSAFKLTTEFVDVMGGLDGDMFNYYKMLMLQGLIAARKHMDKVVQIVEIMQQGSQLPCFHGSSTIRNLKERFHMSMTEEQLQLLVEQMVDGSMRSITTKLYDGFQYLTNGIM

[27] = target: PI3-kinase p110-alpha/p85-alpha (Homo sapiens, UniProt P42336); assay: Inhibition of P110alpha/p85alpha; format: protein-complex assay
[28] = target: Phosphatidylinositol 4-phosphate 3-kinase C2 domain-containing subunit beta (Homo sapiens, UniProt O00750); assay: Inhibition of PI3K C2beta
Chain of Phosphatidylinositol 4-phosphate 3-kinase C2 domain-containing subunit beta (O00750 whole entry, the tested form may be a part): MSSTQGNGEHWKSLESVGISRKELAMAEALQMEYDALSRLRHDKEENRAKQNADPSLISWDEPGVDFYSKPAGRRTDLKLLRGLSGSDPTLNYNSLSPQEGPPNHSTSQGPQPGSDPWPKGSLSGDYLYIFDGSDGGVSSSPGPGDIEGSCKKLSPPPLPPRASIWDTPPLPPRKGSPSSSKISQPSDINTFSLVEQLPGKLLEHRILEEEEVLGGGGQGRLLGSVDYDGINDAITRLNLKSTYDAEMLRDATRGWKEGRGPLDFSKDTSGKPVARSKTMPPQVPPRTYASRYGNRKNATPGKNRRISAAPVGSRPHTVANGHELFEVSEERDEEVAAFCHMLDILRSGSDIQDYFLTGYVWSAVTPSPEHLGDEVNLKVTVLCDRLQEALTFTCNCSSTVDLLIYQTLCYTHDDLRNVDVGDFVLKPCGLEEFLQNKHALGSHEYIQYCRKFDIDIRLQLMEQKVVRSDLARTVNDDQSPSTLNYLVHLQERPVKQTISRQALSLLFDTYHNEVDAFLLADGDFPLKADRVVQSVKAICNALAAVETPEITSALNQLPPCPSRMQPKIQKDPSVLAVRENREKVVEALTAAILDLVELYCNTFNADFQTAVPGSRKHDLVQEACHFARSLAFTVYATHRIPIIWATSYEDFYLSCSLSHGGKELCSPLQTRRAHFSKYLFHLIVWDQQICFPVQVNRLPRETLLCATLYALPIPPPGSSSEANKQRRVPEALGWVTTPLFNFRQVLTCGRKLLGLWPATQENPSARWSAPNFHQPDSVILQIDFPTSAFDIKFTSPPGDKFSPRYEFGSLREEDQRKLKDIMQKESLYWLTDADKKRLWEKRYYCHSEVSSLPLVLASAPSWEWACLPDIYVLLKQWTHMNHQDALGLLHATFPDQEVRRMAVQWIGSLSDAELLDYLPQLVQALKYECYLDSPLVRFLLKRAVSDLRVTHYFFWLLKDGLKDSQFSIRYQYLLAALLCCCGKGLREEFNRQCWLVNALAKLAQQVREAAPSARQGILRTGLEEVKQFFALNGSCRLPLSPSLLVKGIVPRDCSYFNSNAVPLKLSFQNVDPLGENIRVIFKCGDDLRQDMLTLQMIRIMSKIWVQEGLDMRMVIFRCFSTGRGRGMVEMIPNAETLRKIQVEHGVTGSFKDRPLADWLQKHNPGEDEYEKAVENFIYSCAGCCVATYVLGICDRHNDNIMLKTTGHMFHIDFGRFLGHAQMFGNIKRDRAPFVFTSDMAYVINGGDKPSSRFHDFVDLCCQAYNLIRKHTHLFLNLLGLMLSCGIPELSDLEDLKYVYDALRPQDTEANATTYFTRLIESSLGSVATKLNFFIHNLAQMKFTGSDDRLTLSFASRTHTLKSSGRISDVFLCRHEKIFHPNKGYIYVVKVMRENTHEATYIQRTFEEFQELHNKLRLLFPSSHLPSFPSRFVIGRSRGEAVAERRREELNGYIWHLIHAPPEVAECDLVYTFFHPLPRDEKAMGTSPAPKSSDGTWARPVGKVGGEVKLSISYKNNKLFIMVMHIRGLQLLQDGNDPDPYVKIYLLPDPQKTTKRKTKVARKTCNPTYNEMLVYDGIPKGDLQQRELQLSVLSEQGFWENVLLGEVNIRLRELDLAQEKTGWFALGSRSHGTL

SMILES: NC(=O)c1ccc(-c2ccc(-n3c(=O)ccc4cnc5ccc(-c6cnc7ccccc7c6)cc5c43)cc2C(F)(F)F)cc1
- pEC50 [1]: < 6.52
- pIC50 [2]: 7.25
- pEC50 [3]: 7.60

SMILES: Cc1cc(-n2c(=O)ccc3cnc4ccc(-c5ccc(N)nc5)cc4c32)ccc1-c1ccc(C(=O)NC2CCN(C)CC2)cc1
- pEC50 [1]: < 5.90
- pIC50 [2]: 7.40
- pEC50 [3]: 7.30

SMILES: Cc1cc(-n2c(=O)ccc3cnc4ccc(-c5cnn(C)c5)cc4c32)ccc1-c1ccc(C(=O)NC2CCN(C)CC2)cc1
- pEC50 [1]: < 5.90
- pIC50 [2]: 6.55
- pEC50 [3]: 6.82

SMILES: Cc1cc(-n2c(=O)ccc3cnc4ccc(-c5cn[nH]c5)cc4c32)ccc1-c1ccc(C(=O)NC2CCN(C)CC2)cc1
- pEC50 [1]: < 5.90
- pIC50 [2]: 7.42
- pEC50 [3]: 6.82

SMILES: CN1CCC(NC(=O)c2ccc(-c3ccc(-n4c(=O)ccc5cnc6ccc(-c7cnc(N)nc7)cc6c54)cc3C(F)(F)F)cc2)CC1
- pEC50 [1]: 6.00
- pIC50 [2]: 7.36
- pEC50 [3]: 8.00

SMILES: COC(=O)c1ccc(-c2ccc(-n3c(=O)ccc4cnc5ccc(-c6cnc7ccccc7c6)cc5c43)cc2C(F)(F)F)cc1
- pEC50 [1]: < 6.52
- pIC50 [2]: 6.52
- pEC50 [3]: 6.70

SMILES: O=c1ccc2cnc3ccc(-c4cnc5ccccc5c4)cc3c2n1-c1ccc(-c2ccc(COC3CCCCO3)cc2)c(C(F)(F)F)c1 (stereo not drawn)
- pEC50 [1]: < 6.52
- pIC50 [2]: 6.73
- pEC50 [3]: 7.60

SMILES: CCC(=O)N1CCN(c2ccc(-n3c(=O)ccc4cnc5ccc(-c6cnc7ccccc7c6)cc5c43)cc2C(F)(F)F)CC1 [TORIN1]
- AUC(0-inf) [4]: 0.396 µg·h/mL
- Tmax (Mus musculus [14]): 0.25 h
- AUC(0-inf) [8]: 0.72 µg·h/mL
- Cmax (Mus musculus [15]): 2.757 µg/mL
- Vdss (Mus musculus [16]): 0.59 L/kg
- Cmax (Mus musculus [17]): 0.223 µg/mL

SMILES: Cc1cc(-n2c(=O)ccc3cnc4ccccc4c32)ccc1-c1ccc(C(=O)NC2CCN(C)CC2)cc1
- pEC50 [1]: < 5.90
- pIC50 [2]: < 5.52
- pEC50 [3]: < 6.00

Now from value to compound:

- pEC50 [1]: 6.00
- pIC50 [2]: 7.72
- pEC50 [3]: 7.60
SMILES: Cc1cc(-n2c(=O)ccc3cnc4ccc(-c5cnc6[nH]ccc6c5)cc4c32)ccc1-c1ccc(C(=O)NC2CCN(C)CC2)cc1

- pEC50 [1]: < 6.52
- pIC50 [2]: 7.64
- pEC50 [3]: 7.70
SMILES: O=C(O)c1ccc(-c2ccc(-n3c(=O)ccc4cnc5ccc(-c6cnc7ccccc7c6)cc5c43)cc2C(F)(F)F)cc1

- pEC50 [1]: < 6.52
- pIC50 [2]: 7.76
- pEC50 [3]: 7.52
SMILES: O=c1ccc2cnc3ccc(-c4cnc5ccccc5c4)cc3c2n1-c1ccc(-c2ccc(CO)cc2)c(C(F)(F)F)c1

- pEC50 [1]: 6.00
- AUC(0-inf) [4]: 0.391 µg·h/mL
- Tmax [5]: 1 h
- half-life [6]: 0.7 h
- pIC50 [2]: 7.84
- clearance [7]: 1.36 L/h/kg
- pEC50 [3]: 9.00
- inhibition at 10 µM (CYP3A4): 34%
- AUC(0-inf) [8]: 0.737 µg·h/mL
- Cmax [9]: 1.05 µg/mL
- Vd [10]: 1.82 L/kg
- Cmax [11]: 0.115 µg/mL
- bioavailability [12]: 5.4%
- half-life [13]: 1.85 h
SMILES: Cc1cc(-n2c(=O)ccc3cnc4ccc(-c5cnc6ccccc6c5)cc4c32)ccc1-c1ccc(C(=O)NC2CCN(C)CC2)cc1

- pIC50 [18]: 6.77
- inhibition [19]: 80%
- AUC(0-inf) [4]: 1.41 µg·h/mL
- pIC50 [20]: < 5.00
- Tmax [5]: 4 h
- half-life [6]: 0.767 h
- inhibition [21]: 80%
- inhibition [22]: 80%
- pIC50 [2]: 7.66
- inhibition [23]: 80%
- clearance [7]: 0.714 L/h/kg
- pIC50 [24]: 5.95
- pEC50 [3]: 8.30
- inhibition at 10 µM (CYP3A4): 61%
- AUC(0-inf) [8]: 1.39 µg·h/mL
- Cmax [9]: 1.41 µg/mL
- pIC50 [25]: 8.52
- pIC50 [26]: 5.46
- pIC50 [27]: 6.04
- Vd [10]: 1.95 L/kg
- Cmax [11]: 0.191 µg/mL
- pIC50 [28]: 6.36
- bioavailability [12]: 10.1%
- half-life [13]: 3.61 h
SMILES: CN1CCC(NC(=O)c2ccc(-c3ccc(-n4c(=O)ccc5cnc6ccc(-c7cnc8ccccc8c7)cc6c54)cc3C(F)(F)F)cc2)CC1

- pEC50 [1]: 6.00
- pIC50 [2]: 7.85
- pEC50 [3]: 8.00
SMILES: CN1CCC(NC(=O)c2ccc(-c3ccc(-n4c(=O)ccc5cnc6ccc(-c7cn[nH]c7)cc6c54)cc3C(F)(F)F)cc2)CC1

- pEC50 [1]: < 6.52
- pIC50 [2]: 7.99
- pEC50 [3]: 7.82
SMILES: CNC(=O)c1ccc(-c2ccc(-n3c(=O)ccc4cnc5ccc(-c6cnc7ccccc7c6)cc5c43)cc2C(F)(F)F)cc1
